# In patent US9896445B2, “Heterocyclic inhibitors of ERK1 and ERK2 and their use in the treatment of cancer” (Asana Biosciences, LLC, priority 2015, dated 2018):
# Tests used:
# ERK1 = target: T1, ERK1 (Homo sapiens, UniProt P27361); experiment: ERK1 HTRF (biochemical) assay; details: HTRF
# T1 construct: purchased Jubilant Biosys
# Description: ERK1 and ERK2 HTRF (Biochemical) Assays
# These assays employed a homogeneous time resolved fluorescence (HTRF) technique. […] The plate was incubated at room temperature for 60 min with shaking. […] The IC50 values (half maximal inhibitory concentration values) were subsequently determined using a sigmoidal dose-response curve (variable slope) in GraphPad Prism® 5 software.
# ERK2 = target: T2, ERK2 (Homo sapiens, UniProt P28482); experiment: ERK2 HTRF (biochemical) assay; details: HTRF
# T2 construct: purchased Jubilant Biosys
# Method in brief: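 Readout was time-resolved FRET between europium anti-phospho-MBP and streptavidin-APC after a 60-min room-temperature kinase step. That step used ERK2 (25 nM in enzyme mix), biotinylated MBP peptide (1 uM) and ATP (24 uM) from the substrate mix, in pH 7.5 Tris buffer.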
# T1 sequence (P27361 whole entry): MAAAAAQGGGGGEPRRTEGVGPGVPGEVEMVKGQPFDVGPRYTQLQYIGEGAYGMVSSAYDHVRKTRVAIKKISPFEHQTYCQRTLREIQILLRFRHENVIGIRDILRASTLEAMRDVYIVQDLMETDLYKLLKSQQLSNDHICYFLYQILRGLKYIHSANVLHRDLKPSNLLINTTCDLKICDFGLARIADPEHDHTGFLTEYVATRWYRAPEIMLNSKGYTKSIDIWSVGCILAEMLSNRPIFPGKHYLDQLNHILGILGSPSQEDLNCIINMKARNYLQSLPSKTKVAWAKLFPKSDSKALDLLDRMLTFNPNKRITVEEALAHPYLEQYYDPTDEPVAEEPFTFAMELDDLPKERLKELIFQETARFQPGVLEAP
# T2 sequence (P28482 whole entry): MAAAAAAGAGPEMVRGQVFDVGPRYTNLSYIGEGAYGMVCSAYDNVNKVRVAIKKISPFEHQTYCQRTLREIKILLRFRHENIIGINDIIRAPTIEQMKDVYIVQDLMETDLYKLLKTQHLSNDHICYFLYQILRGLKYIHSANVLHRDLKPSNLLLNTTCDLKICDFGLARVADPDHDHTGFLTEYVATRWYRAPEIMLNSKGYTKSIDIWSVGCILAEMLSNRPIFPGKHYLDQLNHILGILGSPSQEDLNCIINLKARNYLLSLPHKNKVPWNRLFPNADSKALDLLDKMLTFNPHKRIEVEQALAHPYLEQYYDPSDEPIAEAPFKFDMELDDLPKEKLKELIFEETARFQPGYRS
SMILES,IC50 (ERK1),IC50 (ERK2)
"Cc1cnc(Nc2ccc3c(c2)OCO3)nc1-n1ccc(C(=O)N[C@H](CO)Cc2ccccc2)c1 [Compound 59, (S)-1-(2-(benzo[d][1,3]dioxol-5-ylamino)-5-methylpyrimidin-4-yl)-N-(1-hydroxy-3-phenylpropan-2-yl)-1H-pyrrole-3-carboxamide]",50 to 100 nM,≤ 50 nM
"O=C(N[C@H](CO)c1cccc(Cl)c1)c1cn(-c2ccnc(Nc3ccccc3)c2)cn1 [Compound 72, (S)-N-(1-(3-chlorophenyl)-2-hydroxyethyl)-1-(2-(phenylamino)pyridin-4-yl)-1H-imidazole-4-carboxamide]",< 50 nM,≤ 50 nM
"Cc1cnc(Nc2ccc(N3CCNCC3)cc2)nc1-n1ccc(C(=O)NC(CO)c2ccccc2)c1 (centres unmarked) [Compound 73, N-(2-hydroxy-1-phenylethyl)-1-(5-methyl-2-((4-(piperazin-1-yl)-phenyl)amino)pyrimidin-4-yl)-1H-pyrrole-3-carboxamide]",< 50 nM,≤ 50 nM
"CC[C@@H](CO)Nc1ncc(C)c(-n2ccc(C(=O)NC(CO)c3ccccc3)c2)n1 (stereo partly drawn) [Compound 75, N-(2-hydroxy-1-phenylethyl)-1-(2-(((S)-1-hydroxy-butan-2-yl)amino)-5-methylpyrimidin-4-yl)-1H-pyrrole-3-carboxamide]",< 50 nM,≤ 50 nM
"O=C(NC(CO)c1ccccc1)c1ccn(-c2ccnc(Nc3ccc4c(c3)OCO4)c2)c1 (centres unmarked) [Compound 76, 1-(2-(benzo[d][1,3]dioxol-5-ylamino)pyridin-4-yl)-N-(2-hydroxy-1-phenylethyl)-1H-pyrrole-3-carboxamide]",< 50 nM,≤ 50 nM
"Cc1cnc(Nc2ccc(F)cc2Cl)cc1-n1ccc(C(=O)NC(CO)c2ccccc2)c1 (centres unmarked) [Compound 78, 1-(2-((2-chloro-4-fluorophenyl)amino)-5-methylpyridin-4-yl)-N-(2-hydroxy-1-phenylethyl)-1H-pyrrole-3-carboxamide]",< 50 nM,≤ 50 nM
"Cc1cnc(Nc2ccc3occc3c2)cc1-n1ccc(C(=O)NC(CO)c2ccccc2)c1 (centres unmarked) [Compound 79, 1-(2-(benzofuran-5-ylamino)-5-methylpyridin-4-yl)-N-(2-hydroxy-1-phenylethyl)-1H-pyrrole-3-carboxamide]",100 to 500 nM,≤ 50 nM
"Cc1cnc(Nc2ccc3c(c2)OC(F)(F)O3)cc1-n1ccc(C(=O)NC(CO)c2ccccc2)c1 (centres unmarked) [Compound 80, 1-(2-((2,2-difluorobenzo[d] [1,3]dioxol-5-yl)-amino)-5-methyl-pyridin-4-yl)-N-(2-hydroxy-1-phenyl-ethyl)-1H-pyrrole-3-carboxamide]",< 50 nM,≤ 50 nM
"Cc1cnc(Nc2cccnc2)cc1-n1ccc(C(=O)NC(CO)c2ccccc2)c1 (centres unmarked) [Compound 81, N-(2-hydroxy-1-phenylethyl)-1-(5-methyl-2-(pyridin-3-ylamino)pyridin-4-yl)-1H-pyrrole-3-carboxamide]",< 50 nM,≤ 50 nM
"O=C(NC(CO)c1ccccc1)c1ccn(-c2ccnc(Nc3ccc(F)cc3Cl)c2)c1 (centres unmarked) [Compound 82, 1-(2-((2-chloro-4-fluorophenyl)amino)pyridin-4-yl)-N-(2-hydroxy-1-phenylethyl)-1H-pyrrole-3-carboxamide]",50 to 100 nM,≤ 50 nM
"Cc1cnc(Nc2ccc(N3CCNCC3)cc2)cc1-n1ccc(C(=O)NC(CO)c2ccccc2)c1 (centres unmarked) [Compound 83, N-(2-hydroxy-1-phenylethyl)-1-(5-methyl-2-((4-(piperazin-1-yl)-phenyl)amino)-pyridin-4-yl)-1H-pyrrole-3-carboxamide]",100 to 500 nM,≤ 50 nM

# Next, values leading:
IC50 (ERK1),IC50 (ERK2),SMILES
< 50 nM,≤ 50 nM,"Cc1cnc(Nc2ccc3c(c2)OCO3)nc1-n1ccc(C(=O)NC(CO)c2cc(Cl)cc(Cl)c2)c1 (centres unmarked) [Compound 58, 1-(2-(benzo[d][1,3]dioxol-5-ylamino)-5-methylpyrimidin-4-yl)-N-(1-(3,5-dichlorophenyl)-2-hydroxyethyl)-1H-pyrrole-3-carboxamide]"
< 50 nM,≤ 50 nM,"Cc1cnc(Nc2ccc3c(c2)OCO3)nc1-n1ccc(C(=O)N[C@H](CO)c2ccccc2)c1 [Compound 60, (S)-1-(2-(benzo[d][1,3]dioxol-5-ylamino)-5-methylpyrimidin-4-yl)-N-(2-hydroxy-1-phenylethyl)-1H-pyrrole-3-carboxamide]"
< 50 nM,≤ 50 nM,"Cc1cnc(Nc2ccc3c(c2)OC(F)(F)O3)nc1-n1ccc(C(=O)NC(CO)c2cccc(Cl)c2)c1 (centres unmarked) [Compound 62, N-(1-(3-chloro-phenyl)-2-hydroxyethyl)-1-(2-((2,2-difluoro-benzo[d][1,3]dioxol-5-yl)amino)-5-methylpyrimidin-4-yl)-1H-pyrrole-3-carboxamide]"
< 50 nM,≤ 50 nM,"Cc1cnc(Nc2ccc3c(c2)OC(F)(F)O3)nc1-n1ccc(C(=O)NC(CO)c2ccccc2)c1 (centres unmarked) [Compound 63, 1-(2-((2,2-difluoro-benzo[d][1,3]dioxol-5-yl)amino)-5-methylpyrimidin-4-yl)-N-(2-hydroxy-1-phenylethyl)-1H-pyrrole-3-carboxamide]"
< 50 nM,≤ 50 nM,"COC[C@@H](NC(=O)c1ccn(-c2nc(Nc3ccc4c(c3)OCO4)ncc2C)c1)c1ccccc1 [Compound 64, (S)-1-(2-(benzo[d][1,3]dioxol-5-ylamino)-5-methylpyrimidin-4-yl)-N-(2-methoxy-1-phenylethyl)-1H-pyrrole-3-carboxamide]"
< 50 nM,≤ 50 nM,"O=C(NC(CO)c1ccccc1)c1ccn(-c2nc(Nc3ccc4c(c3)OCO4)ncc2F)c1 (centres unmarked) [Compound 66, 1-(2-(benzo[d][1,3]dioxol-5-ylamino)-5-fluoropyrimidin-4-yl)-N-(2-hydroxy-1-phenylethyl)-1H-pyrrole-3-carboxamide]"
< 50 nM,≤ 50 nM,"O=C(NC(CO)c1ccccc1)c1ccn(-c2nc(Nc3ccccc3Cl)ncc2F)c1 (centres unmarked) [Compound 67, 1-(2-((2-chloro-phenyl)amino)-5-fluoropyrimidin-4-yl)-N-(2-hydroxy-1-phenylethyl)-1H-pyrrole-3-carboxamide]"
< 50 nM,≤ 50 nM,"Cc1cnc(Nc2ccc3occc3c2)nc1-n1ccc(C(=O)NC(CO)c2cccc(Cl)c2)c1 (centres unmarked) [Compound 68, 1-(2-(benzofuran-5-ylamino)-5-methylpyrimidin-4-yl)-N-(1-(3-chlorophenyl)-2-hydroxyethyl)-1H-pyrrole-3-carboxamide]"
< 50 nM,≤ 50 nM,"Cc1cnc(Nc2ccc3c(c2)OC(F)(F)O3)nc1-n1ccc(C(=O)N[C@H](CO)c2ccc(F)c(Cl)c2)c1 [Compound 69, (S)-N-(1-(3-chloro-4-fluorophenyl)-2-hydroxyethyl)-1-(2-((2,2-difluoro-benzo[d][1,3]dioxol-5-yl)amino)-5-methylpyrimidin-4-yl)-1H-pyrrole-3-carboxamide]"
< 50 nM,≤ 50 nM,"Cc1cnc(Nc2ccc3c(c2)OCO3)nc1-n1ccc(C(=O)NC(CO)c2cccc(Cl)c2F)c1 (centres unmarked) [Compound 70, 1-(2-(benzo[d][1,3]dioxol-5-ylamino)-5-methylpyrimidin-4-yl)-N-(1-(3-chloro-2-fluorophenyl)-2-hydroxyethyl)-1H-pyrrole-3-carboxamide]"
< 50 nM,≤ 50 nM,"O=C(NC(CO)c1ccccc1)c1ccn(-c2ccnc(Nc3ccccc3)c2)c1 (centres unmarked) [Compound 71, N-(2-hydroxy-1-phenylethyl)-1-(2-(phenylamino)pyridin-4-yl)-1H-pyrrole-3-carboxamide]"
